Data published in patent US20200216906A1, “METHODS AND COMPOSITIONS RELATING TO THE DIAGNOSIS AND TREATMENT OF CANCER” (PRESIDENT AND FELLOWS OF HARVARD COLLEGE, priority 2015, published 2020).
Where a name gives a salt, the structure may show the parent alone. Read-outs that look alike come from different tables or passages of the source.

Legend:
ABCG2 = biological target: T1, ABCG2 (Homo sapiens, UniProt Q9UNQ0); details: Cusatis and Sparreboom, 2008; cited from earlier work
T1 sequence (Q9UNQ0 1-655): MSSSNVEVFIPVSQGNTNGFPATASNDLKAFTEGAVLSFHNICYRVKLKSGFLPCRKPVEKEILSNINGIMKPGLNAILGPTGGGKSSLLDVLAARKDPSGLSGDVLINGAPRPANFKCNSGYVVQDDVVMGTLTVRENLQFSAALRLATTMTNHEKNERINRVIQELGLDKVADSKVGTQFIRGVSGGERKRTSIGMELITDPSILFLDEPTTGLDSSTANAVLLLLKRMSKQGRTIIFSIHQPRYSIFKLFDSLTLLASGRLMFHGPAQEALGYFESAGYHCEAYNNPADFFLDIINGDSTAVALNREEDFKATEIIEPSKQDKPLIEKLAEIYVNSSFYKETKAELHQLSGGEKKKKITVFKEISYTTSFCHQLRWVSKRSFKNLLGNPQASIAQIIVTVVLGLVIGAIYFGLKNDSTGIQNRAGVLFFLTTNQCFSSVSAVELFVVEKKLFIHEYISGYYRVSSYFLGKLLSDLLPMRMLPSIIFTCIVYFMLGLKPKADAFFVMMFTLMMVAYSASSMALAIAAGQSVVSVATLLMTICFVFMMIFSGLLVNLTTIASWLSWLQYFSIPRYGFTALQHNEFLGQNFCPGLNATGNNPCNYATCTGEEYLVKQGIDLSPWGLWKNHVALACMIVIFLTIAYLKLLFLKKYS

[1] = Stability of gemcitabine in culture and conditioned media; format: in vitro ADME
Text: Drug availability mediated by transport or binding or export from the cell is known to be a major determinant of the sensitivity to chemotherapy (O'CONNOR, 2007). […] Furthermore, conditioned media collected from Panc02.13 cells exposed to gemcitabine after 5 days retained 96.7% activity (FIGS. 35A-[…]).

H2052 (LATS2) cells = assay: Gemcitabine and dFdU efflux by LC-MS/MS, H2052 cells; format: in vitro ADME; details: higher in H2052 (LATS2)
Text: Are defects in the Hippo pathway the major cause of gemcitabine sensitivity? […] Restoring the levels of LATS2 in H2052 cells caused an increase in the mRNA and proteins levels of ABCG2 and CDA (FIGS. 23C, 36A-36M).

[2] = test system: Miapaca2-YAPS6A xenografts; assay: Mouse xenograft, Miapaca2-YAPS6A; format: in vivo
Protocol: To assess the gemcitabine response to Hippo pathway inactivation in tumors a mouse xenograft model of pancreatic carcinoma cells and patient-derived xenograft (PDX) models from a variety of solid tumors including human cancers from non-small cell lung, esophagus, breast, mesothelium, ovary, colon, head and neck, sarcoma, and cholangiocarcinoma were used (FIG. 30). In mouse xenograft studies, two human pancreatic cancer cell lines (Miapac2 and Panc02.13) expressing GFP or YAPS6A were injected into athymic mice. Both parental or GFP expressing cells grew rapidly, producing palpable tumors in 5-10 days. When the tumors were ˜200 mm^3 (as measured using a caliper), mice were randomized into treatment and control groups. The […] received i.p. saline injections on alternate days for two weeks, and the latter received gemcitabine (20 mg/kg in Miapaca2-YAPS6A and 50 mg/Kg in Panc02.13-YAPS6A cohorts).
Tumorigenicity in Nude Mice. All in vivo experiments were performed using 6-week-old to 8-week-old athymic nude mice. Mice were maintained in laminar flow rooms with constant temperature and humidity. Miapaca2 or Panc02.13 cells were inoculated subcutaneously (s.c.) into each flank of the mice. Cells (2×10^6 in suspension) were injected on day 0, and tumor growth was followed every 2 to 3 days by tumor diameter measurements using vernier calipers. Tumor volumes (V) were calculated using the formula: V=AB2/2 (A, axial diameter; B, rotational diameter). When the outgrowths were • 200 mm^3, mice were divided at random into two groups (control and treated, n=3-8). The treated group received gemcitabine injection or saline control on alternate days (MWF) for 2 weeks.
Intra-tumor gemcitabine measurements.

[3] = test system: Panc02.13-YAPS6A xenografts; assay: Mouse xenograft, Panc02.13-YAPS6A; format: in vivo; details: 50 mg/Kg, alternate days for two weeks
Protocol: In mouse xenograft studies, two human pancreatic cancer cell lines (Miapac2 and Panc02.13) expressing GFP or YAPS6A were injected into athymic mice. […] When the tumors were ˜200 mm^3 (as measured using a caliper), mice were randomized into treatment and control groups. The former received i.p. saline injections on alternate days for two weeks, and the latter received gemcitabine (20 mg/kg in Miapaca2-YAPS6A and 50 mg/Kg in Panc02.13-YAPS6A cohorts).
Tumorigenicity in Nude Mice. All in vivo experiments were performed using 6-week-old to 8-week-old athymic nude mice. Mice were maintained in laminar flow rooms with constant temperature and humidity. […] Cells (2×10^6 in suspension) were injected on day 0, and tumor growth was followed every 2 to 3 days by tumor diameter measurements using vernier calipers. Tumor volumes (V) were calculated using the formula: V=AB2/2 (A, axial diameter; B, rotational diameter). When the outgrowths were • 200 mm^3, mice were divided at random into two groups (control and treated, n=3-8). The treated group received gemcitabine injection or saline control on alternate days (MWF) for 2 weeks.

[4] = cited from earlier work
[5] = test system: Panc02.13 cells expressing YAPS6A construct; assay: Kinetic cell growth assay, Panc02.13 cells expressing YAPS6A; format: cell-based, human; details: for EC50: Homo sapiens, YAPS6A construct
Protocol: Panc02.13 cells were used to express YAPS6A (or vector controls) under sparse and dense cultures. Expression was confirmed by confocal microscopy (data not shown). Suppression of the Hippo pathway by expression of non-phospho, active form of YAP (YAPS6A) sensitized pancreatic cancer cells to gemcitabine and 5-FU (FIGS. 6 and 7). Apoptosis was measured by immunobloting with cleaved caspases 3/7 or PARP. Blots were also stained with anti-β-actin for loading control. The effect of Hippo pathway suppression on gemcitabine and 5-FU senstitization was maintained in 3D spheroid culture (FIG. 8). The effects of eleven cytotoxic drugs on the growth of Panc02.13 cells expressing vector only or YAPS6A construct grown under low or high densities were determined (Table 1).
(§1) The effect of gemcitabine on pancreatic cancer cell growth was studied using a kinetic cell growth assay. Pancreatic cancer cells were plated on 96-well plates (Essen ImageLock, Essen Instruments, MI, US) at varying densities (2-4×10^3 for low density or 15-20×10^3 for high density experiments). Small molecule inhibitors at different doses were added 24 hours after plating and cell confluence was monitored with Incucyte Live-Cell Imaging System and software (Essen Instruments). Confluence was observed every hour for 48-144h or until the control (DMSO only) samples reached 100% confluence.
Cell lines (Panc02.13, Panc10.05 or Miapaca2) were transfected with YAPS6A constructs (Addgene) using Lipofectamine™ (Invitrogen, Carlsbad, Calif.) following the manufacturer's instructions and 48 hour post-transfection selected in 5-10 μg/ml Blasticidin (InvivoGen, San Diego, Calif.). The clones screened for YAPS6A expression by Western blot. Stable cell lines were maintained in complete medium and 5 μg/ml Blasticidin.
as §1, with “Kinetic Cell growth assay. The” for “The”, “(2-4X103” for “(2-4×10^3”, “15-20X103” for “15-20×10^3”, “Incucyte™” for “Incucyte”

Compound: Nc1ccn([C@@H]2O[C@H](CO)[C@@H](O)C2(F)F)c(=O)n1 [Gemcitabine, Gemcitabine hydrochloride]
- Substrate of ABCG2 (ABCG2): substrates of ABCG2
- Activity retained in conditioned media ([1]; conditioned media from Panc02.13 cells after 5 days): 96.7%
- Lability in culture media ([1]; culture media): not labile
- Effluxed gemcitabine in media, H2052 (LATS2) vs parental H2052 (LATS2−/−) (H2052 (LATS2) cells): ~10 fold
- Growth of xenografts ([2]; 20 mg/kg, alternate days for two weeks): significantly slowed
- Induction in apoptosis vs parental controls ([2]; cleaved caspase 7 and phosphor-H2aX): > 2 fold
- Tumor volume [3]: significant regression
- Patients without objective response to treatment ([4]; patients treated with gemcitabine): > 75%
- Median overall survival ([4]; standard-of-care therapy, pancreatic cancer): six
- EC50 ([5]; high density, read-out: High density (EC50, nM) 02.13-YAPS6A): 17 nM
- EC50 ([5]; low density, read-out: Low density (EC50, nM) 02.13-YAPS6A): 1.7 nM
- Sensitization by expression of YAPS6A ([5]; suppression of the Hippo pathway, high cell density): sensitized
